Measured values published in patent publication US8809361B2, “2,3-dihydrofuro[2,3-c]pyridines, their use as modulators of the G-protein-coupled receptor GPR119 and pharmaceutical compositions thereof” (Boehringer Ingelheim International GmbH, priority 2012, dated 2014).

Molecular target: T1, human GPR119 (Homo sapiens, UniProt Q8TDV5)
T1 construct: expression vector for human GPR119 cDNA (Acc. No. NP_848566); expressed in transfected cells
T1 sequence (Q8TDV5 1-335): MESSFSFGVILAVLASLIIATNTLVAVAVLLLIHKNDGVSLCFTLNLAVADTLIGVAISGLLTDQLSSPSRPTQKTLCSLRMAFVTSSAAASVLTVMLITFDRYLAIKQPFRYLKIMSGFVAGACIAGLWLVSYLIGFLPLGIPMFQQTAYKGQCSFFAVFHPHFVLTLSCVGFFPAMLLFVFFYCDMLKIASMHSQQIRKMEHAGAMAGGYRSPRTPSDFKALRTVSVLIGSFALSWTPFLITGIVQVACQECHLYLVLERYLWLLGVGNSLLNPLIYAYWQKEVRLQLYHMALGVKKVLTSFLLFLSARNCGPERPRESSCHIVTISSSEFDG
Test: GPR119 activation / intracellular cAMP stimulation, AlphaScreen cAMP Assay in Min-6/hGPR119 cells
Format: cell-based
Details: MIN6 cells stably transfected with human GPR119, 45 minutes incubation at room temperature
Procedure: The compounds of formula I according to the invention modulate the activity of the G-protein-coupled receptor GPR119. The effect of the compounds on the activation of GPR119 and on the stimulation of intracellular cAMP concentration is determined using the AlphaScreen cAMP Assay Kit (Cat. No. #6760625R) made by PerkinElmer.
MIN6 cells [Miyazaki J et al., Endocrinology. 1990 July; 127(1):126-32] are stably transfected with an expression vector for human GPR119 cDNA (Acc. No. NP_848566). Min-6/hGPR119 cells are cultured in DMEM, 10% FBS, 50 μM β-mercaptoethanol, 0.3 mg/mL Geniticin, 2 mM GlutaMAX at 37° C., 5% CO2. For the assay, the cells are seeded in Optiplates (white, 384-well, 160W-barcoded, TC, sterile with lid, Cat. No. #6007688 (Perkin Elmer); 10000 cells/well; 50 μL). The plates covered with lids are then incubated for 24 hours at 37° C., 5% CO2. After the medium is aspirated from the wells completely, 10 ill of the test compound are added, the compounds are diluted using stimulating buffer (140 mM NaCl, 3.6 mM KCl, 0.5 mM NaH2PO4, 0.5 mM MgSO4, 1.5 mM CaCl2, 10 mM Hepes, 5 mM NaHCO3; pH 7.4. 0.5 mM IBMX and 0.1% BSA, the final DMSO concentration is 1%). After 45 minutes incubation at room temperature (approx. 20° C.), the cAMP concentrations are determined using the AlphaScreen cAMP Assay Kit (Cat. No. #6760625R from PerkinElmer).

Question: For CS(=O)(=O)N1CC=C(c2cc3c(cn2)OC2(C3)CC3(CCN(c4nnc(C(F)(F)F)s4)CC3)C2)CC1 [Example 20, 5-(1-Methanesulfonyl-1,2,3,6-tetrahydro-pyridin-4-yl)-1″-(5-trifluoromethyl-[1,3,4]thiadiazol-2-yl)-dispiro[2,3-dihydrofuro[2,3-c]pyridine-2,1′-cyclobutane-3′,4″-piperidine]], which EC50 is on record?
Answer: 10 nM

Question: Which EC50 does the source give for CS(=O)(=O)N1CC=C(c2cc3c(cn2)OC2(C3)CC3(CCN(c4ncc(Cl)cn4)CC3)C2)CC1 [Example 9, 1″-(5-Chloro-pyrimidin-2-yl)-5-(1-methanesulfonyl-1,2,3,6-tetrahydro-pyridin-4-yl)-dispiro[2,3-dihydrofuro[2,3-c]pyridine-2,1′-cyclobutane-3′,4″-piperidine]] here?
Answer: 6 nM

Question: Which EC50 does the source give for CC(C)(F)CN1CCC2(CC1)CC1(Cc3cc(-c4ccc(S(C)(=O)=O)cc4)ncc3O1)C2 [Example 6, 1″-(2-Fluoro-2-methyl-propyl)-5-(4-methylsulfonyl-phenyl)-dispiro[2,3-dihydrofuro[2,3-c]pyridine-2,1′-cyclobutane-3′,4″-piperidine]] here?
Answer: 135 nM

Question: With CS(=O)(=O)c1ccc(-c2cc3c(cn2)OC2(C3)CC3(CCN(CC4(C(F)(F)F)CC4)CC3)C2)cc1 [Example 5, 5-(4-Methylsulfonyl-phenyl)-1″-[(1-trifluoromethyl-cyclopropyl)-methyl]-dispiro[2,3-dihydrofuro[2,3-c]pyridine-2,1′-cyclobutane-3′,4″-piperidine]] as the molecule, how does the EC50 read?
Answer: 362 nM

Question: For CS(=O)(=O)N1CC=C(c2cc3c(cn2)OC2(C3)CC3(CCN(c4ncc(C(F)(F)F)cn4)CC3)C2)CC1 [Example 32, 5-(1-Methanesulfonyl-1,2,3,6-tetrahydro-pyridin-4-yl)-1″-(5-trifluoromethyl-pyrimidin-2-yl)-dispiro[2,3-dihydrofuro[2,3-c]pyridine-2,1′-cyclobutane-3′,4″-piperidine]], which EC50 is on record?
Answer: 6 nM

Question: Which EC50 does the source give for CC(C)OC(=O)N1CCC2(CC1)CC1(Cc3cc(C4=CCN(S(C)(=O)=O)CC4)ncc3O1)C2 [Example 10, 1″-(Isopropyloxycarbonyl)-5-(1-methanesulfonyl-1,2,3,6-tetrahydro-pyridin-4-yl)-dispiro[2,3-dihydrofuro[2,3-c]pyridine-2,1′-cyclobutane-3′,4″-piperidine]] here?
Answer: 16 nM

Question: For CC(C)(C)OC(=O)N1CCC2(CC1)CC1(Cc3cc(-c4ccc(S(C)(=O)=O)cc4)ncc3O1)C2 [Example 1, 5-(4-Methylsulfonyl-phenyl)-1″-tert-butoxycarbonyl-dispiro[2,3-dihydrofuro[2,3-c]pyridine-2,1′-cyclobutane-3′,4″-piperidine]], which EC50 is on record?
Answer: 21 nM

Question: Which EC50 does the source give for CS(=O)(=O)N1CC=C(c2cc3c(cn2)OC2(C3)CC3(CCN(c4ncc(C5CC5)cn4)CC3)C2)CC1 [Example 17, 1″-(5-Cyclopropyl-pyrimidin-2-yl)-5-(1-methanesulfonyl-1,2,3,6-tetrahydro-pyridin-4-yl)-dispiro[2,3-dihydrofuro[2,3-c]pyridine-2,1′-cyclobutane-3′,4″-piperidine]] here?
Answer: 9 nM

Question: For CC1(OC(=O)N2CCC3(CC2)CC2(Cc4cc(C5=CCN(S(C)(=O)=O)CC5)ncc4O2)C3)CC1 [Example 12, 5-(1-Methanesulfonyl-1,2,3,6-tetrahydro-pyridin-4-yl)-1″-(1-methyl-cyclopropyloxycarbonyl)-dispiro[2,3-dihydrofuro[2,3-c]pyridine-2,1′-cyclobutane-3′,4″-piperidine]], which EC50 is on record?
Answer: 11 nM
